Activity calls are given as the source filed them. The calls are words filed in the database; no cut-off is given here.
Legend:
[1] = Inhibition of Sporosarcina pasteurii CCM 2056 urease using urea as substrate pretreated for 60 mins followed by substrate addition after 15 mins by phenol-hypochlorite reagent based colorimetric method
[2] = Inhibition of Sporosarcina pasteurii CCM 2056 urease using urea as substrate after 15 mins by phenol-hypochlorite reagent based colorimetric method
[3] = Competitive inhibition of Sporosarcina pasteurii CCM 2056 urease using varying levels of urea as substrate after 10 mins by Lineweaver-Burk plot analysis
[4] = Competitive inhibition of Sporosarcina pasteurii CCM 2056 urease using varying levels of urea as substrate pretreated for 60 mins followed by substrate addition after 10 mins by Lineweaver-Burk plot analysis
[5] = Irreversible inhibition of Sporosarcina pasteurii CCM 2056 urease assessed as reduction in ammonia production using urea as substrate pretreated for 60 mins followed by substrate addition measured for 120 mins by Berthelot colorimetric assay
[6] = Irreversible inhibition of Sporosarcina pasteurii CCM 2056 urease assessed as reduction in ammonia production using urea as substrate measured for 120 mins by Berthelot colorimetric assay
Sporosarcina pasteurii [7] = experiment: Ratio of Kinact to Ki for Sporosarcina pasteurii CCM 2056 urease
Sporosarcina pasteurii [8] = experiment: Inhibition of Sporosarcina pasteurii CCM 2056 urease up to 2 mM using urea as substrate pretreated for 60 mins followed by substrate addition after 15 mins by phenol-hypochlorite reagent based colorimetric method
[9] = Slow-binding inhibition of Sporosarcina pasteurii CCM 2056 urease using varying levels of urea as substrate pretreated for 60 mins followed by substrate addition after 120 mins by phenol-hypochlorite reagent based colorimetric method
[10] = Slow-binding inhibition of Sporosarcina pasteurii CCM 2056 urease using varying levels of urea as substrate after 120 mins by phenol-hypochlorite reagent based colorimetric method
[11] = Inhibition of Proteus mirabilis urease
Sporosarcina pasteurii [12] = experiment: Potency index, ratio of Methyl (Z)-2-{[hydrogen(hydroxy)phosphoryl]methyl}-3-phenylpropenoate Ki to compound Ki for competitive inhibition of Sporosarcina pasteurii CCM 2056 urease using varying levels of urea as substrate pretreated for 60 mins followed by substrate addition measured after 10 mins

SMILES: COC(=O)/C(=C/c1ccccc1)CP(=O)(O)CO
- IC50 [1]: 309 µM
- IC50 [2]: 465 µM
- Ki [3]: 327 µM
- Ki [4]: 293 µM

SMILES: C=C(C(=O)OC)C(OC(C)=O)c1ccc(NC(C)=O)cc1 (configuration not stated)
- IC50 [5]: 302 µM
- IC50 [6]: > 1000 µM
- Ratio (Sporosarcina pasteurii [7]): 2.78 M⁻¹ s⁻¹

SMILES: COC(=O)/C(=C/c1ccccc1)CP(=O)(O)CN
- inhibition (Sporosarcina pasteurii [8]): inactive

SMILES: O=C(O)/C(=C/c1ccc(F)cc1)CP(=O)(O)O
- Ki [3]: 13.4 µM
- Ki [4]: 9.79 µM

SMILES: O=C(O)/C(=C/c1ccc([N+](=O)[O-])cc1)CCP(=O)(O)O
- Ki [9]: 433 µM
- Ki [10]: 59.9 µM

SMILES: CP(=O)(O)C/C(=C\c1ccccc1)C(=O)O
- inhibition (Sporosarcina pasteurii [8]): inactive

SMILES: COC(=O)/C(=C/c1ccccc1)CCP(=O)(O)O
- IC50 [1]: 4.18 µM
- IC50 [2]: 4.28 µM
- Ki [11]: 1.52 µM
- Ki [3]: 3.67 µM
- Ki [4]: 3.05 µM

SMILES: COC(=O)/C(=C/c1ccccc1)CP(C)(=O)O
- inhibition (Sporosarcina pasteurii [8]): inactive

SMILES: COC(=O)/C(=C/c1ccc([N+](=O)[O-])cc1)CCP(=O)(O)O
- Ki [9]: 362 µM
- Ki [10]: 54.1 µM

SMILES: COC(=O)/C(=C/c1ccc(Cl)cc1)CP(=O)(O)O
- Ki [3]: 88.9 µM
- Ki [4]: 81.2 µM

SMILES: O=C(O)/C(=C/c1ccccc1)CP(=O)(O)O
- IC50 [1]: 27.8 µM
- IC50 [2]: 44.5 µM
- Ki [3]: 16.1 µM
- Ki [4]: 13 to 13.1 µM

SMILES: COC(=O)/C(=C/c1ccc(F)cc1)C[PH](=O)O
- Ki [3]: 17.9 µM
- Ki [4]: 14.5 µM
- Ratio Ki (Sporosarcina pasteurii [12]): 5 to 7

SMILES: COC(=O)/C(=C/c1ccc(Cl)cc1)C[PH](=O)O
- Ki [3]: 24 µM
- Ki [4]: 16.7 µM
- Ratio Ki (Sporosarcina pasteurii [12]): 5 to 7

SMILES: COC(=O)/C(=C/c1ccccc1)C[PH](=O)O
- IC50 [1]: 104 µM
- IC50 [2]: 201 µM
- Ki [3]: 177 µM
- Ki [4]: 97.5 µM

SMILES: COC(=O)/C(=C/c1ccc(NC(C)=O)cc1)C[PH](=O)O
- Ki [3]: 20.6 µM
- Ki [4]: 13.4 µM
- Ratio Ki (Sporosarcina pasteurii [12]): 5 to 7

SMILES: O=C(O)/C(=C/c1ccccc1)CP(=O)(O)CO
- inhibition (Sporosarcina pasteurii [8]): inactive

SMILES: COC(=O)/C(=C/c1ccccc1)CP(=O)(O)O
- inhibition (Sporosarcina pasteurii [8]): inactive

SMILES: C=C(C(=O)OC)C(OC(C)=O)c1ccc(OC)cc1 (configuration not stated)
- IC50 [5]: 1240 µM
- IC50 [6]: > 2000 µM
- Ratio (Sporosarcina pasteurii [7]): < 1 M⁻¹ s⁻¹

SMILES: C=C(C(=O)OC)C(OC(C)=O)c1ccc(Cl)cc1 (configuration not stated)
- IC50 [5]: 17.7 µM
- IC50 [6]: 53.2 µM
- Ratio (Sporosarcina pasteurii [7]): 75.3 M⁻¹ s⁻¹

SMILES: COC(=O)/C(=C/c1ccc(OC)cc1)C[PH](=O)O
- Ki [3]: 157 µM
- Ki [4]: 149 µM

SMILES: COC(=O)/C(=C/c1ccc(C)cc1)C[PH](=O)O
- Ki [3]: 41.6 µM
- Ki [4]: 23.4 µM
- Ratio Ki (Sporosarcina pasteurii [12]): 5 to 7

SMILES: COC(=O)/C(=C/c1ccc(F)cc1)CP(=O)(O)O
- Ki [3]: 73.2 µM
- Ki [4]: 62.9 µM

SMILES: C=C(C(=O)OC)C(OC(C)=O)c1ccc(F)cc1 (configuration not stated)
- IC50 [5]: 4.15 µM
- IC50 [6]: 64.2 µM
- Ratio (Sporosarcina pasteurii [7]): 525 M⁻¹ s⁻¹

SMILES: O=C(O)/C(=C/c1ccc(Cl)cc1)CP(=O)(O)O
- Ki [3]: 19.6 µM
- Ki [4]: 16.2 µM

SMILES: O=C(O)/C(=C/c1ccc(F)cc1)CCP(=O)(O)O
- Ki [3]: 32.3 µM
- Ki [4]: 27.9 µM

SMILES: Cc1ccc(/C=C(\CP(=O)(O)O)C(=O)O)cc1
- Ki [11]: 0.485 µM
- Ki [3]: 0.674 µM
- Ki [4]: 0.594 µM

SMILES: O=C(O)/C(=C/c1ccccc1)CCP(=O)(O)O
- IC50 [1]: 48.4 µM
- IC50 [2]: 83.4 µM
- Ki [3]: 55.6 µM
- Ki [4]: 66.7 µM

SMILES: COC(=O)/C(=C/c1ccc(OC)cc1)CCP(=O)(O)O
- Ki [3]: 327 µM
- Ki [4]: 292 µM

SMILES: C=C(C(=O)OC)C(OC(C)=O)c1ccc([N+](=O)[O-])cc1 (configuration not stated)
- IC50 [5]: 224 µM
- IC50 [6]: 679 µM
- Ratio (Sporosarcina pasteurii [7]): 2.34 M⁻¹ s⁻¹

SMILES: C=C(C(=O)OC)C(OC(C)=O)c1ccc(C)cc1 (configuration not stated)
- IC50 [5]: 331 µM
- IC50 [6]: > 1000 µM
- Ratio (Sporosarcina pasteurii [7]): 5.62 M⁻¹ s⁻¹

SMILES: COC(=O)/C(=C/c1ccc(OC)cc1)CP(=O)(O)O
- Ki [3]: 239 µM
- Ki [4]: 229 µM

SMILES: O=C(O)/C(=C/c1ccccc1)C[PH](=O)O
- IC50 [1]: 234 µM
- IC50 [2]: 344 µM
- Ki [3]: 208 µM
- Ki [4]: 117 µM

SMILES: NCP(=O)(O)C/C(=C\c1ccccc1)C(=O)O
- IC50 [1]: 1340 µM
- IC50 [2]: 1510 µM
- Ki [3]: 1420 µM
- Ki [4]: 1320 µM

SMILES: C=C(C(=O)OC)C(OC(C)=O)c1ccccc1 (configuration not stated)
- IC50 [5]: 870 µM
- IC50 [6]: > 1000 µM
- Ratio (Sporosarcina pasteurii [7]): < 1 M⁻¹ s⁻¹

SMILES: COC(=O)/C(=C/c1ccc(F)cc1)CCP(=O)(O)O
- Ki [3]: 48.4 µM
- Ki [4]: 47.4 µM

SMILES: Cc1ccc(/C=C(\C[PH](=O)O)C(=O)O)cc1
- Ki [4]: 23.4 µM

SMILES: Cc1ccc(CC(CP(=O)(O)O)C(=O)O)cc1 (configuration not stated)
- Ki [3]: 88 µM
- Ki [4]: 90.2 µM

SMILES: Cc1ccc(/C=C(\CCP(=O)(O)O)C(=O)O)cc1
- Ki [4]: 66.7 µM

SMILES: COC(=O)/C(=C/c1ccc(NC(C)=O)cc1)CP(=O)(O)O
- Ki [3]: 404 µM
- Ki [4]: 386 µM

SMILES: COc1ccc(/C=C(\CP(=O)(O)O)C(=O)O)cc1
- Ki [3]: 28.9 µM
- Ki [4]: 34.4 µM

SMILES: COC(=O)/C(=C/c1ccc(C)cc1)CP(=O)(O)O
- Ki [3]: 21.4 µM
- Ki [4]: 20.7 µM

Source: ChEMBL document CHEMBL4033625, “Novel organophosphorus scaffolds of urease inhibitors obtained by substitution of Morita-Baylis-Hillman adducts with phosphorus nucleophiles” (Eur J Med Chem, 2017)
